According to paper PMC12028158, “Synthesis and In Vitro Evaluation of the Anticancer Effect of Novel Phosphonium Vindoline Derivatives” (International Journal of Molecular Sciences, 2025):
Like-named read-outs stand apart in the source and are kept apart here.

Tests used:
Format in all cases: cell-based
[1] = test system: SR; experiment: NCI60 five-dose screen; settings: Homo sapiens
[2] = test system: HOP-62; experiment: NCI60 five-dose screen; settings: Homo sapiens, HOP-62
[3] = test system: NCI-H23; experiment: NCI60 five-dose screen; settings: Homo sapiens, NCI-H23
[4] = test system: HT29; experiment: NCI60 five-dose screen; settings: Homo sapiens, HT-29
[5] = test system: SW-620; experiment: NCI60 five-dose screen; settings: Homo sapiens, SW-620
[6] = test system: SF-295; experiment: NCI60 five-dose screen; settings: Homo sapiens, SF-295
[7] = test system: LOX IMVI; experiment: NCI60 five-dose screen; settings: Homo sapiens
[8] = test system: SK-MEL-5; experiment: NCI60 five-dose screen; settings: Homo sapiens, SK-MEL-5
[9] = test system: OVCAR-3; experiment: NCI60 five-dose screen; settings: Homo sapiens, OVCAR-3
[10] = test system: 786-0; experiment: NCI60 five-dose screen; settings: Homo sapiens, 786-0
[11] = test system: PC-3; experiment: NCI60 five-dose screen; settings: Homo sapiens, PC-3
[12] = test system: DU-145; experiment: NCI60 five-dose screen; settings: Homo sapiens, DU-145
[13] = test system: T-47D; experiment: NCI60 five-dose screen; settings: Homo sapiens, T47D
[14] = test system: MDA-MB-468; experiment: NCI60 five-dose screen; settings: Homo sapiens, MDA-MB-468
[15] = test system: 60 human tumor cell lines (NCI60); experiment: NCI60 five-dose screen, overall mean
[16] = test system: HL-60(TB); experiment: NCI60 one-dose screen; settings: Homo sapiens, HL-60, read-out: Growth percent
[17] = test system: K-562; experiment: NCI60 one-dose screen; settings: Homo sapiens, K562, read-out: Growth percent
[18] = test system: MOLT-4; experiment: NCI60 one-dose screen; settings: Homo sapiens, MOLT-4, read-out: Growth percent
[19] = test system: SR; experiment: NCI60 one-dose screen; settings: Homo sapiens, read-out: Growth percent
[20] = test system: A549/ATCC; experiment: NCI60 one-dose screen; settings: Homo sapiens, A549, read-out: Growth percent
[21] = test system: HOP-62; experiment: NCI60 one-dose screen; settings: Homo sapiens, HOP-62, read-out: Growth percent
[22] = test system: NCI-H322M; experiment: NCI60 one-dose screen; settings: Homo sapiens, read-out: Growth percent
[23] = test system: HCT-116; experiment: NCI60 one-dose screen; settings: Homo sapiens, HCT-116, read-out: Growth percent
[24] = test system: KM12; experiment: NCI60 one-dose screen; settings: Homo sapiens, KM12, read-out: Growth percent
[25] = test system: SF-268; experiment: NCI60 one-dose screen; settings: Homo sapiens, SF-268, read-out: Growth percent
[26] = test system: SF-295; experiment: NCI60 one-dose screen; settings: Homo sapiens, SF-295, read-out: Growth percent
[27] = test system: SNB-19; experiment: NCI60 one-dose screen; settings: Homo sapiens, SNB-19, read-out: Growth percent
[28] = test system: M14; experiment: NCI60 one-dose screen; settings: Homo sapiens, M14, read-out: Growth percent
[29] = test system: MDA-MB-435; experiment: NCI60 one-dose screen; settings: Homo sapiens, MDA-MB-435, read-out: Growth percent
[30] = test system: SK-MEL-28; experiment: NCI60 one-dose screen; settings: Homo sapiens, SK-MEL-28, read-out: Growth percent
[31] = test system: A498; experiment: NCI60 one-dose screen; settings: Homo sapiens, A498, read-out: Growth percent
[32] = test system: ACHN; experiment: NCI60 one-dose screen; settings: Homo sapiens, read-out: Growth percent
[33] = test system: UO-31; experiment: NCI60 one-dose screen; settings: Homo sapiens, UO-31, read-out: Growth percent
[34] = test system: HS 578T; experiment: NCI60 one-dose screen; settings: Homo sapiens, Hs-578T, read-out: Growth percent
[35] = 60 cell, read-out: Mean GI50, mean over all 60 cell lines
[36] = read-out: GI50 Mean, mean over all 60 human cancer cell lines

Compound	GI50 [1] [nM]	GI50 [2] [nM]	GI50 [3] [nM]	GI50 [4] [nM]	GI50 [5] [nM]	GI50 [6] [nM]	GI50 [7] [nM]	GI50 [8] [nM]	GI50 [9] [nM]	GI50 [10] [nM]	GI50 [11] [nM]	GI50 [12] [nM]	GI50 [13] [nM]	GI50 [14] [nM]	GI50 [15, 35] [nM]	GI50 [15, 36] [nM]	activity at 10 µM [16] [%]	activity at 10 µM [17] [%]	activity at 10 µM [18] [%]	activity at 10 µM [19] [%]	further results
CC[C@]12C=CCN3CC[C@@]4(c5ccc(OC)cc5N(C)[C@H]4[C@@](O)(C(=O)OC)[C@@H]1OC(=O)CCCC[P+](c1ccc(C)cc1)(c1ccc(C)cc1)c1ccc(C)cc1)[C@@H]32 [10a]	360	1370	855	358	761	1620	797	1570	604	1640	450	1150	370	264	< 3000	1230	-42.2	0.8	-25	25.8	activity at 10 µM [20]: -92.2%; activity at 10 µM [21]: -84%; activity at 10 µM [22]: -97.6%; activity at 10 µM [23]: -93.5%; activity at 10 µM [24]: -73.6%; activity at 10 µM [25]: -61.1%; activity at 10 µM [26]: -91.8%; activity at 10 µM [27]: -96.5%; activity at 10 µM [28]: -88.3%; activity at 10 µM [29]: -86.8%; activity at 10 µM [30]: -97.8%; activity at 10 µM [31]: -90.9%; activity at 10 µM [32]: -99.3%; activity at 10 µM [33]: -96%; activity at 10 µM [34]: -69.9%
CC[C@]12C=CCN3CC[C@@]4(c5ccc(OC)cc5N(C)[C@H]4[C@@](O)(C(=O)OC)[C@@H]1OC(=O)CCCC[P+](c1ccc(OC)cc1)(c1ccc(OC)cc1)c1ccc(OC)cc1)[C@@H]32 [10b]	428	2420	1190	511	1060	1970	1110	1600	634	2590	562	16000	383	264	< 3000	2200	-45.2	1.01	-26.2	23.2	activity at 10 µM [20]: -83.7%; activity at 10 µM [21]: -80.8%; activity at 10 µM [22]: -89.7%; activity at 10 µM [23]: -94.9%; activity at 10 µM [24]: -68.8%; activity at 10 µM [25]: -38.1%; activity at 10 µM [26]: -93.6%; activity at 10 µM [27]: -95.7%; activity at 10 µM [28]: -89.8%; activity at 10 µM [29]: -88.5%; activity at 10 µM [30]: -96.8%; activity at 10 µM [31]: -54.7%; activity at 10 µM [32]: -49.2%; activity at 10 µM [33]: 15.5%; activity at 10 µM [34]: -67.5%
